Laboratory results from ChEMBL document CHEMBL2046399, “Effect of C-ring modifications on the cytotoxicity of spirostan saponins and related glycosides” (Bioorg Med Chem, 2012).
Calls of active or inactive are those of the source. The rule behind the calls is not given here.

Tests used:
HL-60 [1] = test: Cytotoxicity against human HL60 cells after 72 hrs by MTT assay; format: functional, cell-based; details: HL-60, 72 h
HL-60 [2] = test: Cytotoxicity against human HL60 cells at 3 to 60 uM after 24 hrs by MTT assay; format: functional, cell-based
PBMC = test: Cytotoxicity against human PBMC at 3 to 60 uM after 24 hrs by MTT assay; format: cell-based
HL-60 [3] = test: Cytotoxicity against human HL60 cells assessed as cell viability at 10 uM after 24 hrs by MTT assay relative to control; format: functional; details: HL-60, 24 h, read-out: Activity
[4] = Cytotoxicity against human PBMC assessed as cell viability at 10 uM after 24 hrs by MTT assay relative to control; format: cell-based; details: PBMC (peripheral blood mononuclear cells), read-out: Activity
[5] = Cytotoxicity against human PBMC assessed as cell viability at 30 uM after 24 hrs by MTT assay relative to control; format: cell-based; details: PBMC (peripheral blood mononuclear cells), read-out: Activity
HL-60 [6] = test: Cytotoxicity against human HL60 cells assessed as cell viability at 30 uM after 24 hrs by MTT assay relative to control; format: functional; details: HL-60, 24 h, read-out: Activity

| Compound | IC50 (HL-60 [1]) | Activity (HL-60 [2]) | Activity (PBMC) | further results |
| --- | --- | --- | --- | --- |
| C[C@@H]1CC[C@@]2(OC1)O[C@H]1C[C@H]3[C@@H]4CC[C@H]5C[C@@H](O[C@@H]6O[C@H](COC(=O)C(C)(C)C)[C@@H](O)[C@H](OC(=O)C(C)(C)C)[C@H]6O)CC[C@]5(C)C4=CC(=O)[C@]3(C)[C@H]1[C@@H]2C | 5.9 µM | – | – | – |
| C[C@@H]1CC[C@@]2(OC1)O[C@H]1C[C@H]3[C@@H]4CC[C@H]5C[C@@H](O[C@@H]6O[C@H](COC(=O)C(C)(C)C)[C@@H](O)[C@H](OC(=O)C(C)(C)C)[C@H]6O)CC[C@]5(C)[C@H]4CC(=O)O[C@]3(C)[C@H]1[C@@H]2C | 9.9 µM | Active | Toxic | – |
| C[C@@H]1CC[C@@]2(OC1)O[C@H]1C[C@H]3[C@@H]4CC[C@H]5C[C@@H](O[C@@H]6O[C@H](CO)[C@@H](O[C@@H]7O[C@@H](C)[C@H](O)[C@@H](O)[C@H]7O)[C@H](O)[C@H]6O[C@@H]6O[C@@H](C)[C@H](O)[C@@H](O)[C@H]6O)CC[C@]5(C)[C@H]4CC[C@]3(C)[C@H]1[C@@H]2C | 2.6 µM | – | – | viability at 10 µM (HL-60 [3]): 17%; viability at 24 h, 10 µM [4]: 45% |
| CO[C@@H]1C[C@H]2[C@@H](CC[C@H]3C[C@@H](O[C@@H]4O[C@H](CO)[C@@H](O[C@@H]5O[C@@H](C)[C@H](O)[C@@H](O)[C@H]5O)[C@H](O)[C@H]4O[C@@H]4O[C@@H](C)[C@H](O)[C@@H](O)[C@H]4O)CC[C@@]32C)[C@@H]2C[C@@H]3O[C@]4(CC[C@@H](C)CO4)[C@@H](C)[C@@H]3[C@@]12C | 21.8 µM | – | – | – |
| C[C@@H]1CC[C@@]2(OC1)O[C@H]1C[C@H]3[C@@H]4CC[C@H]5C[C@@H](O[C@@H]6O[C@H](CO)[C@@H](O[C@@H]7O[C@@H](C)[C@H](O)[C@@H](O)[C@H]7O)[C@H](O)[C@H]6O[C@@H]6O[C@@H](C)[C@H](O)[C@@H](O)[C@H]6O)CC[C@]5(C)C4=CC(=O)[C@]3(C)[C@H]1[C@@H]2C | 30.4 µM | – | – | – |
| CO[C@H]1C[C@H]2[C@@H](CC[C@H]3C[C@@H](O[C@@H]4O[C@H](COC(=O)C(C)(C)C)[C@@H](O)[C@H](OC(=O)C(C)(C)C)[C@H]4O)CC[C@@]32C)[C@@H]2C[C@@H]3O[C@]4(CC[C@@H](C)CO4)[C@@H](C)[C@@H]3[C@@]12C | 21.5 µM | – | – | – |
| CO[C@H]1C[C@H]2[C@@H](CC[C@H]3C[C@@H](O[C@@H]4O[C@H](CO)[C@@H](O[C@@H]5O[C@@H](C)[C@H](O)[C@@H](O)[C@H]5O)[C@H](O)[C@H]4O[C@@H]4O[C@@H](C)[C@H](O)[C@@H](O)[C@H]4O)CC[C@@]32C)[C@@H]2C[C@@H]3O[C@]4(CC[C@@H](C)CO4)[C@@H](C)[C@@H]3[C@@]12C | 31.5 µM | – | – | – |
| C[C@@H]1CC[C@@]2(OC1)O[C@H]1C[C@@H]([C@@H]3CC[C@H]4C[C@@H](O[C@@H]5O[C@H](CO)[C@@H](O[C@@H]6O[C@@H](C)[C@H](O)[C@@H](O)[C@H]6O)[C@H](O)[C@H]5O[C@@H]5O[C@@H](C)[C@H](O)[C@@H](O)[C@H]5O)CC[C@]4(C)[C@H]3CC(=O)O)[C@](C)(O)[C@H]1[C@@H]2C | > 100 µM | – | – | – |
| C=C1C[C@H]2[C@@H](CC[C@H]3C[C@@H](O[C@@H]4O[C@H](CO)[C@@H](O[C@@H]5O[C@@H](C)[C@H](O)[C@@H](O)[C@H]5O)[C@H](O)[C@H]4O[C@@H]4O[C@@H](C)[C@H](O)[C@@H](O)[C@H]4O)CC[C@@]32C)[C@@H]2C[C@@H]3O[C@]4(CC[C@@H](C)CO4)[C@@H](C)[C@@H]3[C@@]12C | 9.7 µM | – | – | viability at 24 h, 30 µM [5]: 64.2%; viability at 30 µM (HL-60 [6]): 23% |
| C[C@@H]1CC[C@@]2(OC1)O[C@H]1C[C@H]3[C@@H]4CC[C@H]5C[C@@H](O[C@@H]6O[C@H](COC(=O)C(C)(C)C)[C@@H](O)[C@H](OC(=O)C(C)(C)C)[C@H]6O)CC[C@]5(C)[C@H]4CC[C@]3(C)[C@H]1[C@@H]2C | 8.9 µM | Active | Toxic | – |
| C=C1C[C@H]2[C@@H](CC[C@H]3C[C@@H](O[C@@H]4O[C@H](COC(=O)C(C)(C)C)[C@@H](O)[C@H](OC(=O)C(C)(C)C)[C@H]4O)CC[C@@]32C)[C@@H]2C[C@@H]3O[C@]4(CC[C@@H](C)CO4)[C@@H](C)[C@@H]3[C@@]12C | 15.7 µM | Active | Toxic | – |
| CO[C@@H]1C[C@H]2[C@@H](CC[C@H]3C[C@@H](O[C@@H]4O[C@H](COC(=O)C(C)(C)C)[C@@H](O)[C@H](OC(=O)C(C)(C)C)[C@H]4O)CC[C@@]32C)[C@@H]2C[C@@H]3O[C@]4(CC[C@@H](C)CO4)[C@@H](C)[C@@H]3[C@@]12C | 19.2 µM | Active | Toxic | – |
